System: AA-induced platelet aggregation
Assay: Inhibitory effect on AA-induced platelet aggregation in rats in vitro (washed platelets)
Format: cell-based, rat
Details: 1*10^−4 M
Procedure: Several experimental groups were established, including a blank control group, an AA (arachidonic acid) model control group, and various test compounds. Each test compound had three concentration groups: 10^−3 M, 10^−4 M, and 10^−5 M. The data from the blank and model control group were shared among the different drug concentration groups as a control.
Male SD rats were anesthetized with 3% chloral hydrate (300 mg/kg) through intraperitoneal injection. After being fixed in a supine position, the skin of the neck was cut about 3 cm, bluntly separated with a hemostat, and the trachea was exposed after the common carotid artery was separated. The distal end of the common carotid artery was ligated with a fine thread, and the proximal end was clamped with an arterial clamp for vascular intubation. After the intubation was fixed, the artery clamp was opened, and the blood was placed into a blood collection tube containing 3.8% trisodium citrate so that the blood was mixed well with the 3.8% trisodium citrate in a volume ratio of 9:1.
The prepared anticoagulant blood was mixed well and centrifuged for 10 minutes at 500 rpm, then the upper layer of plasma was aspirated to obtain platelet-rich plasma (PRP), and the PRP was centrifuged again for 5 minutes at 3,000 rpm. The supernatant was discarded, and the platelet precipitate was obtained, which was washed once with Ca^2+-free HEPES-Tyrode's buffer, then centrifuged at 3,000 rpm for 5 minutes. The supernatant was discarded, and the platelets were resuspended with Ca^2+-free HEPES-Tyrode's buffer to obtain the washed platelets.
First, 300 μL of Ca^2+-containing HEPES-Tyrode's solution was taken into the test cup, put into the test wells, and calibrated by pressing the “PPP” key. Subsequently, 240 μL of the washed platelets were added to the test cup, then added with 30 μL of different concentrations of drug solution, incubated for 10 minutes at 37° C. in a preheated bath, and then put into the test wells. 3 μL of 100× CaCl2 solution (final concentration of 0.2 g/L) and 30 μL of inducer (final concentration of AA of 800 μM) were added to the test wells, and then the “Start” key was pressed immediately. The maximum aggregation rate was recorded every 60 s. The measurement was repeated three times for each concentration for 10 minutes, and the aggregation curve was plotted.
The platelet aggregation inhibition rate was calculated with the following formula:
Inhibition rate (%)=(maximum aggregation rate in the model control group−maximum aggregation rate in the administration group)/maximum aggregation rate in the model control group×100%
All data were expressed as mean±standard deviation (mean±SD). SPSS 22.0 software was used for statistical analysis of the data. Intergroup data were analyzed using one-way ANOVA, with P<0.05 considered as statistically significant and P<0.01 considered as highly significant.

SMILES	significant inhibition of AA-induced platelet aggregation
Cc1cc(Cn2cnc(F)c2)ccc1[C@@H]1C[C@H]1C(=O)O [Compound 5, (1R,2R)-2-(4-((4-Fluoro-1H-imidazol-1-yl)methyl)-2-methylphenyl)cyclopropane-1-carboxylic acid]	can significantly inhibit
O=C(O)[C@H]1C[C@@H]1c1ccc(Cn2ccnc2)cc1 [Compound 20, (1S,2S)-2-(4-((1H-Imidazol-1-yl)methyl)phenyl)cyclopropane-1-carboxylic acid]	can significantly inhibit
O=C(O)[C@H]1C[C@@H]1c1ccc(Cn2ccnc2)c(F)c1 [Compound 35, (1S,2S)-2-(4-((1H-Imidazol-1-yl)methyl)-3-fluorophenyl)cyclopropane-1-carboxylic acid]	can significantly inhibit
O=C(O)[C@H]1C[C@@H]1c1ccc(Cn2cnc(Cl)c2)cc1F [Compound 33, (1S,2S)-2-(4-((4-Chloro-1H-imidazol-1-yl)methyl)-2-fluorophenyl)cyclopropane-1-carboxylic acid]	can significantly inhibit
O=C(O)[C@@H]1C[C@H]1c1ccc(Cn2cnc(Cl)c2)c(F)c1 [Compound 14, (1R,2R)-2-(4-((4-Chloro-1H-imidazol-1-yl)methyl)-3-fluorophenyl)cyclopropane-1-carboxylic acid]	can significantly inhibit
Cc1cc(Cn2ccnc2)ccc1[C@@H]1C[C@H]1C(=O)O [Compound 7, (1R,2R)-2-(4-((1H-Imidazol-1-yl)methyl)-2-methylphenyl)cyclopropane-1-carboxylic acid]	can significantly inhibit
Cc1cc([C@@H]2C[C@H]2C(=O)O)ccc1Cn1cnc(Cl)c1 [Compound 4, (1R,2R)-2-(4-((4-Chloro-1H-imidazol-1-yl)methyl)-3-methylphenyl)cyclopropane-1-carboxylic acid]	can significantly inhibit
O=C(O)[C@H]1C[C@@H]1c1ccc(Cn2cnc(Cl)c2)c(Cl)c1 [Compound 31, (1S,2S)-2-(3-Chloro-4-((4-chloro-1H-imidazol-1-yl)methyl)phenyl)cyclopropane-1-carboxylic acid]	can significantly inhibit
Cc1cc(Cn2cnc(F)c2)ccc1[C@H]1C[C@@H]1C(=O)O [Compound 25, (1S,2S)-2-(4-((4-Fluoro-1H-imidazol-1-yl)methyl)-2-methylphenyl)cyclopropane-1-carboxylic acid]	can significantly inhibit
Cc1cc([C@H]2C[C@@H]2C(=O)O)ccc1Cn1cnc(Cl)c1 [Compound 24, (1S,2S)-2-(4-((4-Chloro-1H-imidazol-1-yl)methyl)-3-methylphenyl)cyclopropane-1-carboxylic acid]	can significantly inhibit
Cc1cc([C@@H]2C[C@H]2C(=O)O)ccc1Cn1cnc(F)c1 [Compound 8, (1R,2R)-2-(4-((4-Fluoro-1H-imidazol-1-yl)methyl)-3-methylphenyl)cyclopropane-1-carboxylic acid]	can significantly inhibit
O=C(O)[C@H]1C[C@@H]1c1ccc(Cn2cnc(F)c2)cc1F [Compound 37, (1S,2S)-2-(2-Fluoro-4-((4-fluoro-1H-imidazol-1-yl)methyl)phenyl)cyclopropane-1-carboxylic acid]	can significantly inhibit
O=C(O)[C@H]1C[C@@H]1c1ccc(Cn2cnc(F)c2)c(Cl)c1 [Compound 38, (1S,2S)-2-(3-Chloro-4-((4-fluoro-1H-imidazol-1-yl)methyl)phenyl)cyclopropane-1-carboxylic acid]	can significantly inhibit
O=C(O)[C@H]1C[C@@H]1c1ccc(Cn2cnc(Cl)c2)c(F)c1 [Compound 34, (1S,2S)-2-(4-((4-Chloro-1H-imidazol-1-yl)methyl)-3-fluorophenyl)cyclopropane-1-carboxylic acid]	can significantly inhibit
